Holding throughout (format): biochemical
One series has as its target T1, MAO-B (Homo sapiens, UniProt P27338).
T1 construct: purchased Sigma-Aldrich
T1 sequence (P27338 1-520): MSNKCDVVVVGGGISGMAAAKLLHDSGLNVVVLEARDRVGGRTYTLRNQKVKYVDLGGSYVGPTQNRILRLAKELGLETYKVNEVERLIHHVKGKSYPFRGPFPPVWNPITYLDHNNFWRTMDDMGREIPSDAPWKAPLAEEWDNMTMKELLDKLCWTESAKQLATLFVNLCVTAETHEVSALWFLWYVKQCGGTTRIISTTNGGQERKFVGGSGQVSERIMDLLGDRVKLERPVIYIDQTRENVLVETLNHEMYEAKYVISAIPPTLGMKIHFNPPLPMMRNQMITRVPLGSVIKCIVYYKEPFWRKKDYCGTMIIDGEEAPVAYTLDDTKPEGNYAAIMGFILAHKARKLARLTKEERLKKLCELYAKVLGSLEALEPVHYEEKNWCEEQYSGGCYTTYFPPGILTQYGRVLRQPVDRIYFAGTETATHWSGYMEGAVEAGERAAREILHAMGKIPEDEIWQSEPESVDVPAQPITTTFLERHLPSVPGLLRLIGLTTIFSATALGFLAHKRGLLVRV
The series is described as follows: continuous spectrophotometric MAO-B inhibition assay. Conditions: for MAO-B inhibition %: 10 µM, 2h; for LiPE: LiPE = pIC50 - QPlogPo/w, new analogs and pargyline; for IC50: dilution series 50 μM to 1 nM, duplicates, read-out: MAO-B inhibition IC50. The protocol:
(§1) Both monoamine oxidase A (MAO-A) and B (MAO-B) protein and the reagents for the chromogenic solution of vanillic acid (4-hydroxy-3-methoxylbenzoic acid, 97% purity), 4-aminoantipyrine (reagent grade), horseradish peroxidase and the substrate tyramine hydrochloride (minimum 99% purity) as well as the potassium phosphate buffer, which was prepared using potassium phosphate dibasic trihydrate (≥99% ReagentPlus™) and potassium phosphate monobasic (minimum 98% purity, molecular biology tested), were purchased from Sigma-Aldrich (St. Louis, MO, USA) for the spectrophotometric assay.
(§2) The protocol for continuous spectrophotometric assay (Holt et al., [1997]) was followed in the activity measurements. The assay was performed in 0.2 M potassium phosphate buffer pH 7.6 on 96-well plates (Nunc™ 96F microwell plate without a lid, Nunc A/S, Roskilde, DK) in 200 μl total volume. The chromogenic solution containing 1 mM vanillic acid, 500 μM 4-aminoantipyrine and 8 U/ml horseradish peroxidase in 0.2 M potassium phosphate buffer pH 7.6 was mixed anew for each measurement. 5 mM tyramine solution was used as the substrate. In order to determine the activity of both MAO-B and MAO-A, concentration series as duplicates were prepared. The protein was combined with the chromogenic solution and incubated 30 min at 37°C. The background signal was measured using multilabel reader (Victor^TM X4, 2030 Multilabel Reader, PerkinElmer, Waltham, MA, USA) at A490 before reaching the total 200 μl volume by adding 20 μl of tyramine to final concentration of 0.5 mM on the plate. As a result, the final concentration of the chromogenic solution on the plate was 250 μM vanillic acid, 125 μM 4-aminoantipyrine and 2 U/ml horseradish peroxide. After adding the substrate, the plates were measured 300 times every 15 s using 1 s exposure time. The device was set to 37°C for the duration of the experiment.
(§3) The experiment conditions should produce absorbance change of ~0.35 (Holt et al., [1997]). […] The same wide panel of coumarin derivatives was additionally used to analyze the MAO-A inhibition at 100 μM (Table 1, Supplementary Table S1).
(§4) The measured data was then fitted on a curve using non-linear regression with the equation for log[inhibitor] vs. response. The IC50 values were therefore determined based on the curve fit. The fitted curves are shown on –log scale in Supplementary Figures S1, S2.

Another series has as its target T2, MAO-A (Homo sapiens, UniProt P21397).
T2 construct: purchased Sigma-Aldrich
T2 sequence (P21397 1-527): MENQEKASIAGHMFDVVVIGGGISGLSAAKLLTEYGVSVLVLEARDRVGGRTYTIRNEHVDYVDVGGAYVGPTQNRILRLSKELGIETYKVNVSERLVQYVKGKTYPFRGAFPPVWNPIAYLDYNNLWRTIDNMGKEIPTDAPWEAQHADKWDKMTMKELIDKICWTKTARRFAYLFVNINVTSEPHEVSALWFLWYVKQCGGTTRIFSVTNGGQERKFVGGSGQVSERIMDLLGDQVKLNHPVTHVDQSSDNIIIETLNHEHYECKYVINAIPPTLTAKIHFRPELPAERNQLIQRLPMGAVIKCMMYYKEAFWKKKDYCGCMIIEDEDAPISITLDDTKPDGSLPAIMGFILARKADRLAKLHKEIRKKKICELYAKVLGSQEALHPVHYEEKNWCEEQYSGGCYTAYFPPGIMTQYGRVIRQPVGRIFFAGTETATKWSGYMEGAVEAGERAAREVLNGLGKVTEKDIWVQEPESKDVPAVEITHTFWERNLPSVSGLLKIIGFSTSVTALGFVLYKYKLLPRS
The series can be described thus: continuous spectrophotometric MAO-A inhibition assay. Conditions: for MAO-A inhibition %: 100 µM, 1h. The protocol: as §1, §2, §3, §4

For another series, the target named is T3, recombinant human HSD1 (Homo sapiens, UniProt P14061).
T3 construct: made in house; host or cells: Sf9 insect cells
T3 sequence (P14061 1-328): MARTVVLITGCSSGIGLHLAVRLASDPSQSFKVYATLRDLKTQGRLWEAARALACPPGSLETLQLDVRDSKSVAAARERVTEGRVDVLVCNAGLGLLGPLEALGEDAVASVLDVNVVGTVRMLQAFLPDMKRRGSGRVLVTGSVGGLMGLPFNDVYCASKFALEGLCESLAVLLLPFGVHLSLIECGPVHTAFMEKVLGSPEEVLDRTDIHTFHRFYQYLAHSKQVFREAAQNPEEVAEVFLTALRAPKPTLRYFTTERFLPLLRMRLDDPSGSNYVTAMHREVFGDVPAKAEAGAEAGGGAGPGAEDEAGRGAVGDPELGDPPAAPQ
The series can be described thus: HSD1 inhibition by HPLC with tritium labeled estrone/estradiol. Particulars: 1 μM.

For another series, the target named is T4, human CYP1A2 (Homo sapiens, UniProt P05177).
T4 construct: purchased Corning Inc
T4 sequence (P05177 1-516): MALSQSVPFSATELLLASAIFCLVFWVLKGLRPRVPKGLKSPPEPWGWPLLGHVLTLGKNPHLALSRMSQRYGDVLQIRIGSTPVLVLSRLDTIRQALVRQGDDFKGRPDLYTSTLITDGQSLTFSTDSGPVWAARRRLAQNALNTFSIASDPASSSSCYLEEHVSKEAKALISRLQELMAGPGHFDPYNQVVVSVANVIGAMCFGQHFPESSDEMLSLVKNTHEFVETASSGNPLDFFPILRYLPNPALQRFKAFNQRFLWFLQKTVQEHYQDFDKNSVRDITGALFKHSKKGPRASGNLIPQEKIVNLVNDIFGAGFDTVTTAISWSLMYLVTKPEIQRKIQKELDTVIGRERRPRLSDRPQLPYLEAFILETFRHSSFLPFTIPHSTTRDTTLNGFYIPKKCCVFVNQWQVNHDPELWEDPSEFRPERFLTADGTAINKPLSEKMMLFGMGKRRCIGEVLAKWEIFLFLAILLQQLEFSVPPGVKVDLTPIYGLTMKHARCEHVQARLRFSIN
The series is described as follows: CYP1A2 inhibition, 7-ethoxyresorufin fluorescence assay. As to the method: Inhibition of CYP1A2 activity was determined with commercial heterologously expressed human CYP1A2 enzyme (Corning Inc., Corning, NY, USA) as described earlier (Korhonen et al., [2005]). The metabolic activity was not in the scope of this particular study. The assay was adapted to the 96-well plate format. In each well, a 150 μL incubation volume contained 100 mM Tris-HCl buffer (pH 7.4), 4.2 mM MgCl2,1 μM 7-ethoxyresorufin, 0.5 pmol of cDNA expressed CYP1A2, […] inhibitor, and a NADPH-generating system. All inhibitors were dissolved in ethanol, and the final concentration of ethanol was 2% in all incubations. The reaction was initiated by adding the NADPH-regenerating system after a 10 min preincubation at 37°C, and after a 20 min incubation, the reaction was terminated by the addition of 110 μL of 80% acetonitrile/20% 0.5 M Tris base. The formed fluorescence was measured with a Victor2 plate counter (Perkin-Elmer Life Sciences Wallac, Turku, Finland) at 570 nm excitation and 616 nm emission.

Structures are written as SMILES. Several values for one entry are separate records, joined by “and”; a condition that tells them apart may be missing. Equal entries are not always repeated.

As for `CC(=O)Oc1ccc2cc(-c3ccccc3)c(=O)oc2c1` [derivative 52], on MAO-B, the “MAO-B inhibition (in words)” value was “activity is lost” and the MAO-B inhibition % worked out at 0.00%. Further, the MAO-A inhibition % on MAO-A is on record as 0.00%. Further, on recombinant human HSD1, the HSD1 inhibition % amounted to 0.70%. For the same molecule, the IC50 (in general, the point on the concentration scale where inhibition reaches its midpoint) on human CYP1A2 stood at 80 µM.
With `COc1ccc(-c2cc3ccc(OC(C)=O)cc3oc2=O)cc1` [derivative 13, 3-(4-methoxyphenyl)-2-oxo-2H-chromen-7-yl acetate], at MAO-B, the inhibition (usually the drop in the measured response relative to a control, in per cent) at 10 µM turned out to be 85.9%; the LiPE turned out to be 3.30; the IC50 turned out to be 1.95 µM. The inhibition at 100 µM against MAO-A came to 2.48%. Moreover, the inhibition at 1 µM on recombinant human HSD1 was 0%. Moreover, the IC50 on human CYP1A2 came to 570 µM.
As for `CN(C)c1ccc(-c2cc3ccc(O)cc3oc2=O)cc1` [derivative 17, 3-(4-(dimethylamino)phenyl)-7-hydroxy-2H-chromen-2-one], at MAO-B, the inhibition at 10 µM came out at 90.1%, the LiPE is 3.62 and the IC50 came out at 0.384 µM. The inhibition at 100 µM against MAO-A came to 4.74%. The inhibition at 1 µM at recombinant human HSD1 stood at 5%. The molecule also came in with an IC50 on human CYP1A2 of 35 µM.
`CC(=O)Oc1cccc2cc(-c3ccc(F)cc3)c(=O)oc12` [derivative 47] yielded an MAO-B inhibition % on MAO-B of 15.81%. On MAO-A, this molecule registered an MAO-A inhibition % of 22.33%. Moreover, at recombinant human HSD1, the HSD1 inhibition % is reported as 0.00%. At human CYP1A2, this molecule showed an IC50 of 17 µM.
For the molecule `O=c1oc2c(CN3CCCCC3)c(O)ccc2cc1-c1ccccc1` [derivative 50], on MAO-B, the “MAO-B inhibition (in words)” value was “activity is lost” and the MAO-B inhibition % is given as 8.16%. On MAO-A, this molecule showed an MAO-A inhibition % of 0.00%. Also, the HSD1 inhibition % on recombinant human HSD1 came to 1.50%. At human CYP1A2, the midpoint of inhibition, the IC50, lay at 65 µM.
In turn, `CC(=O)Oc1cccc2cc(-c3ccc(N(C)C)cc3)c(=O)oc12` [derivative 26] gave an MAO-B inhibition % on MAO-B of 66.79%. Also, the MAO-A inhibition % on MAO-A was determined as 0.00%. The HSD1 inhibition % at recombinant human HSD1 is 0.00%. The IC50 on human CYP1A2 stood at 7 µM.
On to `COc1ccc(-c2cc3ccc(OC)cc3oc2=O)cc1` [derivative 37], for which the MAO-B inhibition % on MAO-B came to 39.78%. On MAO-A, this molecule gave an MAO-A inhibition % of 0.00%. The HSD1 inhibition % on recombinant human HSD1 turned out to be 0.00%. This molecule also yielded an IC50 against human CYP1A2 of 480 µM.
As to `C#CCN(C)Cc1ccccc1` [pargyline, reference compound], the inhibition at 10 µM against MAO-B turned out to be 102%.
Take `CC(=O)Oc1ccc2cc(-c3ccc(OC(F)(F)F)cc3)c(=O)oc2c1` [derivative 3, 2-oxo-3-(4-(trifluoromethoxy)phenyl)-2H-chromen-7-yl acetate]: at MAO-B, the inhibition at 10 µM came out at 100%; the LiPE stood at 3.52; the IC50 is ~0.141 µM and 0.141 µM. In addition, on MAO-A, the inhibition at 100 µM was 22%. For the same molecule, the inhibition at 1 µM at recombinant human HSD1 stood at 0%. Also, half-maximal inhibition against human CYP1A2 (IC50) required 280 µM.
Consider `COc1ccc(-c2cc3cc(OC(C)=O)ccc3oc2=O)cc1` [derivative 14, 3-(4-methoxyphenyl)-2-oxo-2H-chromen-6-yl acetate], for which, at MAO-B, the inhibition at 10 µM is 75.8%, the LiPE turned out to be 2.73 and the IC50 worked out at 8.48 µM. Also, the inhibition at 1 µM on recombinant human HSD1 amounted to 1%. At human CYP1A2, this molecule gave an IC50 of 87.5 µM.
Take `COc1ccc2cc(-c3ccc(OC(C)=O)c(F)c3)c(=O)oc2c1` [derivative 6, 2-fluoro-4-(7-methoxy-2-oxo-2H-chromen-3-yl)phenyl acetate]: at MAO-B, the inhibition at 10 µM is 99.9%; the LiPE is given as 4.25; the IC50 is ~0.189 µM and 0.189 µM. Further, the inhibition at 100 µM at MAO-A was 0%. On recombinant human HSD1, the inhibition at 1 µM was 21%.
As to `COc1ccc2oc(=O)c(-c3ccc(OC(F)(F)F)cc3)cc2c1` [derivative 4, 6-methoxy-3-(4-(trifluoromethoxy)phenyl)-2H-chromen-2-one], at MAO-B, the inhibition at 10 µM came out at 102%, the LiPE is 2.28 and the IC50 worked out at 0.317 µM. The inhibition at 100 µM against MAO-A was 0%. Besides, the inhibition at 1 µM at recombinant human HSD1 came to 0%. The molecule further came in with an IC50 against human CYP1A2 of 7 µM.
Molecule `COc1ccc(-c2cc3cc(Cl)cc(Cl)c3oc2=O)cc1` [derivative 32] came in with an MAO-B inhibition % at MAO-B of 47.77%. In addition, the MAO-A inhibition % on MAO-A was 0.00%. This molecule registered an IC50 against human CYP1A2 of 800 µM.
Regarding `COc1ccc2cc(-c3cccc(OCc4ccccc4)c3)c(=O)oc2c1` [derivative 51], at MAO-B, the MAO-B inhibition % was 6.66%. For the same molecule, the MAO-A inhibition % on MAO-A is recorded as 0.00%. In addition, the HSD1 inhibition % on recombinant human HSD1 amounted to 31.60%. 3 µM corresponded to half-maximal inhibition on human CYP1A2 (IC50).

These data come from article PMC5840146, “Structure-Activity Relationship Analysis of 3-Phenylcoumarin-Based Monoamine Oxidase B Inhibitors” (Frontiers in Chemistry, 2018).
